Reference: patent US20100222396A1 (Novartis AG, priority 2009, published 2010)

Assays:
[1] = target: T1, human orexin 2 receptor (hOx2R) (Homo sapiens, UniProt O43614); assay: Calcium accumulation in cells (FLIPR), antagonism of orexin A, hOx2R; format: cell-based; conditions: for Kd: cells expressing human orexin 2 receptor, IC50 vs orexin A converted by Cheng and Prusoff correction; for inhibition at 10 µM: measured at a concentration of 10 μM of compound (cells marked ^a)
T1 construct: expressed in transfected cells
T1 sequence (O43614 1-444): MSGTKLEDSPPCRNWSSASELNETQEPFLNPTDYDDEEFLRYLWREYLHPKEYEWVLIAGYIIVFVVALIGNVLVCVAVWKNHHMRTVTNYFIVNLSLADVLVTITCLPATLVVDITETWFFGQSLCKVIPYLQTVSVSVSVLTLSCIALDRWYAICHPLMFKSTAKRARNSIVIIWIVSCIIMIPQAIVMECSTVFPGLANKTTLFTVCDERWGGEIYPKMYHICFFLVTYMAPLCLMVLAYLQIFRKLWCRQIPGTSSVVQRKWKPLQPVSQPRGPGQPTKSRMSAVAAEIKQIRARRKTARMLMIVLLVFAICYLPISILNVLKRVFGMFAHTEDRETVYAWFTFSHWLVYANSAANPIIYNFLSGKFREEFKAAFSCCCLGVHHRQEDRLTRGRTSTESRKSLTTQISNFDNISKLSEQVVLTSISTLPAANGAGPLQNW
Procedure, shortened: (§1)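 Serum-starved receptor-expressing cells were loaded with Fluo-4-AM (2 μM) plus probenecid (0.1 mM) in HEPES buffer, pH 7.4, with 1% BSA, and Ca2+ fluorescence was read on FLIPR. Compounds (10^−9–10^−5 M) were added first, and orexin A was added one hour later to measure antagonism.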

[2] = target: T1, human orexin 2 receptor (hOx2R); assay: Radioligand binding assay ([125I]orexin A competition), hOx2R; conditions: CHO or HEK cell membranes, 1 h room temperature
Procedure, shortened: (§2)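 Membranes from CHO or HEK cells expressing the human receptor, incubated 1 h at room temperature with […] [125I]orexin A and compound in HEPES pH 7.5 buffer with BSA, MgCl2, CaCl2 and tween.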

[3] = target: T2, human orexin 1 receptor (hOx1R) (Homo sapiens, UniProt O43613); assay: Radioligand binding assay ([125I]orexin A competition), hOx1R; conditions: CHO or HEK cell membranes, 1 h room temperature
T2 construct: expressed in transfected cells
T2 sequence (O43613 1-425): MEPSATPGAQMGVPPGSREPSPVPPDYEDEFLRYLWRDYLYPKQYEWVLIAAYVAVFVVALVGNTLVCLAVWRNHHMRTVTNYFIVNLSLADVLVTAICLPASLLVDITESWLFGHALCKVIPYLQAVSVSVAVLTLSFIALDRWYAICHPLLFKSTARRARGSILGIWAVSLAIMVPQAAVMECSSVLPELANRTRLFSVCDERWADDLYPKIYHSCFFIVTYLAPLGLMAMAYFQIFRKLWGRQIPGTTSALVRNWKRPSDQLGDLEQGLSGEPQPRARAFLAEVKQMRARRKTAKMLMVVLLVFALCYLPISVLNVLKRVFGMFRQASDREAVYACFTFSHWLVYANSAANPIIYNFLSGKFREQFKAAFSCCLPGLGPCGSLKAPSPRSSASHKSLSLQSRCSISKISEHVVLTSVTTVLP
Procedure, shortened: as §2

[4] = target: T2, human orexin 1 receptor (hOx1R); assay: Calcium accumulation in cells (FLIPR), antagonism of orexin A, hOx1R; format: cell-based; conditions: for inhibition at 10 µM: measured at a concentration of 10 μM of compound (cells marked ^a); for Kd: cells expressing human orexin 1 receptor, IC50 vs orexin A converted by Cheng and Prusoff correction
Procedure, shortened: as §1

Molecule | Kd [1] [nM] | Kd [2] [nM] | Kd [3] [nM] | inhibition at 10 µM [4] [%] | inhibition at 10 µM [1] [%] | Kd [4] [nM]
CCCCC(=O)NCCC(Cc1ccccc1)N(C)C(=O)c1cc(C(F)(F)F)cc(C(F)(F)F)c1 (stereo not drawn) [Example 39, N-(1-Benzyl-3-pentanoylamino-propyl)-N-methyl-3,5-bis-trifluoromethyl-benzamide] | 419 | 610 | > 10000 | 0 | – | –
CN(C(=O)c1cccc2c1OCO2)[C@H](CCNC(=O)c1ccccn1)Cc1ccc(F)cc1 [Example 63, Pyridine-2-carboxylic acid [(S)-3-[(benzo[1,3]dioxole-4-carbonyl)-methyl-amino]-4-(4-fluoro-phenyl)-butyl]-amide] | – | 5900 | > 10000 | 0 | 24 | –
CN(C(=O)c1cccc2c1OCCO2)[C@H](CCNC(=O)c1ccccn1)Cc1ccccc1 [Example 54, Pyridine-2-carboxylic acid {(S)-3-[(2,3-dihydro-benzo[1,4]dioxine-5-carbonyl)-methyl-amino]-4-phenyl-butyl}-amide] | 958 | 1730 | > 10000 | 9 | – | –
CN(C(=O)c1ccccc1)[C@H](CCNC(=O)c1ccccn1)Cc1ccc(Cl)cc1 [Example 70, Pyridine-2-carboxylic acid [(S)-3-(benzoyl-methyl-amino)-4-(4-chloro-phenyl)-butyl]-amide] | – | 8310 | > 10000 | 0 | 29 | –
CN(C(=O)c1cccc2ccccc12)[C@H](CCNC(=O)c1ccccn1)Cc1ccccc1 [Example 6, Pyridine-2-carboxylic acid {(S)-3-[methyl-(naphthalene-1-carbonyl)-amino]-4-phenyl-butyl}-amide] | 57 | 20 | 25 | – | – | 31
CCCN(C(=O)c1cccc2c1OCO2)[C@H](CCNC(=O)c1ccccn1)Cc1ccccc1 [Example 59, Pyridine-2-carboxylic acid {(S)-3-[(benzo[1,3]dioxole-4-carbonyl)-propyl-amino]-4-phenyl-butyl}-amide] | 562 | 3620 | 3630 | – | – | 2040
CN(C(=O)c1ccc(C(F)(F)F)c(C(F)(F)F)c1)[C@H](CCNC(=O)c1ccccn1)Cc1ccccc1 [Example 77, Pyridine-2-carboxylic acid {(8)-3-[(3,4-bis-trifluoromethyl-benzoyl)-methyl-amino]-4-phenyl-butyl}-amide] | 581 | 3710 | 8420 | 25 | – | –
1-Methyl-1H-pyrrole-2-carboxylic acid {(8)-3-[(3,5-difluoro-benzoyl)-methyl-amino]-4-phenyl-butyl}-amide [Example 118] | 55 | 76 | 977 | – | – | 1070
CN(C(=O)c1ccc2c(c1)OCC2)[C@H](CCNC(=O)c1cccn1C)Cc1ccccc1 [Example 117, 1-Methyl-1H-pyrrole-2-carboxylic acid {(S)-3-[(2,3-dihydro-benzofuran-6-carbonyl)-methyl-amino]-4-phenyl-butyl}-amide] | 65 | 81 | 444 | – | – | 987
CN(C(=O)c1ccc2ccccc2c1)[C@@H](CCNC(=O)c1ccccn1)Cc1ccccc1 [Example 43, Pyridine-2-carboxylic acid {(R)-3-[methyl-(naphthalene-2-carbonyl)-amino]-4-phenyl-butyl}-amide] | 203 | 607 | 2250 | – | – | 941
Cc1cc(C)cc(C(=O)N(C)[C@H](CCNC(=O)c2cccn2C)Cc2ccccc2)c1 [Example 125, 1-Methyl-1H-pyrrole-2-carboxylic acid {(S)-3-[(3,5-dimethyl-benzoyl)-methyl-amino]-4-phenyl-butyl}-amide] | 2 | 7 | 176 | – | – | 230
CN1CCc2cc(C(=O)N(C)[C@H](CCNC(=O)c3ccccn3)Cc3ccccc3)ccc21 [Example 55, 1-Methyl-2,3-dihydro-1H-indole-5-carboxylic acid {(S)-1-benzyl-3-[(pyridine-2-carbonyl)-amino]-propyl}-methyl-amide] | 1290 | 1760 | 75 | – | – | 1640
CN(C(=O)c1ccc2ccccc2c1)[C@H](CCNC(=O)c1ccccn1)Cc1ccc(Cl)cc1 [Example 53, Pyridine-2-carboxylic acid {(S)-4-(4-chloro-phenyl)-3-[methyl-(naphthalene-2-carbonyl)-amino]-butyl}-amide] | 748 | 1460 | 3410 | 13 | – | –
CN(C(=O)c1cc(C(F)(F)F)cc(C(F)(F)F)c1)C(CCNC(=O)c1ccccc1)Cc1ccccc1 (stereo not drawn) [Example 17, N-(3-Benzoylamino-1-benzyl-propyl)-N-methyl-3,5-bis-trifluoromethyl-benzamide] | 41 | 107 | 8790 | 36 | – | –
CN(C(=O)c1cccc2ccccc12)[C@H](CCNC(=O)c1ccccn1)Cc1ccc(F)cc1 [Example 28, Pyridine-2-carboxylic acid {(8)-4-(4-fluoro-phenyl)-3-[methyl-(naphthalene-1-carbonyl)-amino]-butyl}-amide] | 4 | 371 | 579 | – | – | 28
Cc1cc(C)cc(C(=O)N(C)[C@H](CCNC(=O)c2ccccn2)Cc2ccccc2)c1 [Example 97, Pyridine-2-carboxylic acid {(S)-3-[(3,5-dimethyl-benzoyl)-methyl-amino]-4-phenyl-butyl}-amide] | 39 | 30 | 46 | – | – | 185
CN(C(=O)c1ccccc1)[C@@H](CCNC(=O)c1ccccn1)Cc1ccccc1 [Example 68, Pyridine-2-carboxylic acid [(R)-3-(benzoyl-methyl-amino)-4-phenyl-butyl]-amide] | 2370 | 7530 | > 10000 | – | – | 3580
CN(C(=O)c1cccc2ccccc12)[C@H](CCNC(=O)c1nc2ccccc2n1C)Cc1ccc(F)cc1 [Example 24, 1-Methyl-1H-benzoimidazole-2-carboxylic acid {(S)-4-(4-fluoro-phenyl)-3-[methyl-(naphthalene-1-carbonyl)-amino]-butyl}-amide] | 5 | 273 | 1390 | – | – | 124
CN(C(=O)c1ccc2c(c1)OCO2)[C@H](CCNC(=O)c1cccn1C)Cc1ccccc1 [Example 76] | 1 | 4 | 94 | – | – | 376
Cc1nc2sccn2c1C(=O)NCC[C@H](Cc1ccccc1)N(C)C(=O)c1ccc2c(c1)OCO2 [Example 82, 6-Methyl-imidazo[2,1-b]thiazole-5-carboxylic acid {(S)-3-[(benzo[1,3]dioxole-5-carbonyl)-methyl-amino]-4-phenyl-butyl}-amide] | 2 | 12 | 163 | – | – | 963
CN(C(=O)c1ccc2c(c1)CCO2)[C@H](CCNC(=O)c1ccccn1)Cc1ccccc1 [Example 29, Pyridine-2-carboxylic acid {(8)-3-[(2,3-dihydro-benzofuran-5-carbonyl)-methyl-amino]-4-phenyl-butyl}-amide] | 157 | 374 | 518 | – | – | 2190
